According to US20230131111A1, “BIODEGRADABLE POLYIMIDAZOLIUMS AND OLIGOIMIDAZOLIUMS” (Nanyang Technological University, priority 2020, published 2023):

Experiments:
[1] = tested on: P. aeruginosa O1 biofilm; experiment: MBEC antibiofilm assay; conditions: 4 h treatment
Procedure: (§1) The MBEC was measured using micro-titre plate-based technology. Briefly, 160 μL of MRSA BAA39 or P. aeruginosa O1 suspension (cell density at ˜10^7 CFU/mL) was added into the 96-well growth plate covered by a lid containing MBEC pegs. Biofilm were grown on the peg lid after incubation at 37° C. for 24-48 h. After removing planktonic bacteria by washing with PBS twice, the lid with biofilm were transferred into the challenge plate which contained two-fold serial dilutions of one of P1-P6 solution, with total volume of 200 μL in each well. The treatment was performed at room temperature for 4 h. After that, the peg lid was washed again with PBS and transferred to a recovery plate which contained PBS (200 μL) in each well. Biofilm bacteria that survived were dislodged from the peg lid by sonication for 30±5 min, and detached bacteria were then 10-fold serial-diluted in sterile PBS and spread on agar plates. After incubation at 37° C. for 24 h, the colonies were counted.

[2] = tested on: E. coli (EC); experiment: MIC broth microdilution; format: cell-based, Escherichia coli
[3] = tested on: MRSA BAA39 biofilm; experiment: MBEC antibiofilm assay; conditions: 4 h treatment
Procedure: as §1

[4] = tested on: 3T3 cells; experiment: Mammalian cell cytotoxicity, MTT; format: cell-based, Mouse; conditions: mouse embryonic fibroblast 3T3 cells, MTT
[5] = tested on: P. aeruginosa PAO1; experiment: MIC90 broth microdilution; format: cell-based, Pseudomonas aeruginosa
[6] = tested on: S. aureus (SA); experiment: MIC broth microdilution; format: cell-based, Staphylococcus aureus
[7] = tested on: MRSA BAA39; experiment: MIC broth microdilution; format: cell-based, Staphylococcus aureus

## Benzalkonium chloride [C3]
[1]
  antibiofilm potency order: P(ImC8)>P(ImC8-co-ImC8D)-50%>P(ImC6)>BAC
[2]
  MIC EC: 16 µg/mL
[3]
  antibiofilm efficacy rank: P(ImC8)>P(ImC8-co-ImC8D)-50%˜P(ImC6)>BAC
[4]
  IC50: 10 µg/mL
[5]
  MIC PAO1: 128 µg/mL
[6]
  MIC SA: 1 to 2 µg/mL
[7]
  MIC MRSA BAA39: 1 µg/mL
